Assay results taken from publication PMC11233931, “Remodeling tumor‐associated macrophage for anti‐cancer effects by rational design of irreversible inhibition of mitogen‐activated protein kinase‐activated protein kinase 2” (MedComm, 2024).

Key:
Assay in all cases: Eurofins kinase selectivity profile against 380 other human recombinant kinases (Table S2)
Assay type in all cases: biochemical
[1] = molecular target: T1, 380 human recombinant protein kinases (Homo sapiens, UniProt Q07002); conditions: CDK18/cyclinY(h), read-out: Inhibition rate
T1 construct: purchased Eurofins (Celle Lévescault)
Description: (§1) Subsequently, to ascertain whether the high potency of compound 11 was specific for MK2, an additional 380 human recombinant protein kinases were screened.
(§2) To assess the impact of various compounds on MK2 kinase activity, we utilized the ADP‐Glo Assay Kit (Promega) following the manufacturer's instructions. Luminescence measurements were taken using a SpectraMax Paradigm reader. The inhibition percentage was calculated using the following formula: ((specific signalDMSO control − specific signal inhibitor)/(specific signalDMSO control)) × 100%. The IC50 values were determined employing dose–response curve fitting via Prism (Graph Pad). Additionally, Eurofins company (Celle Lévescault) conducted the analysis on compound 11’s inhibitory activity against 380 other human recombinant kinases at various concentrations.

[2] = molecular target: T2, 380 human recombinant protein kinases (Homo sapiens, UniProt Q13153); conditions: PAK1(h), read-out: Inhibition rate
T2 construct: purchased Eurofins (Celle Lévescault)
Description: as §1, §2

[3] = molecular target: T3, 380 human recombinant protein kinases (Homo sapiens, UniProt Q15119); conditions: PDHK2(h), read-out: Inhibition rate
T3 construct: purchased Eurofins (Celle Lévescault)
Description: as §1, §2

[4] = molecular target: T4, 380 human recombinant protein kinases (Homo sapiens, UniProt Q15375); conditions: EphA7(h), read-out: Inhibition rate
T4 construct: purchased Eurofins (Celle Lévescault)
Description: as §1, §2

[5] = molecular target: T5, 380 human recombinant protein kinases (Homo sapiens, UniProt Q8IZX4); conditions: TAF1L(h), read-out: Inhibition rate (%)
T5 construct: purchased Eurofins (Celle Lévescault)
Description: as §1, §2

[6] = molecular target: T6, 380 human recombinant protein kinases (Homo sapiens, UniProt Q99683); conditions: ASK1(h), read-out: Inhibition rate
T6 construct: purchased Eurofins (Celle Lévescault)
T6 sequence (Q99683 1-1374): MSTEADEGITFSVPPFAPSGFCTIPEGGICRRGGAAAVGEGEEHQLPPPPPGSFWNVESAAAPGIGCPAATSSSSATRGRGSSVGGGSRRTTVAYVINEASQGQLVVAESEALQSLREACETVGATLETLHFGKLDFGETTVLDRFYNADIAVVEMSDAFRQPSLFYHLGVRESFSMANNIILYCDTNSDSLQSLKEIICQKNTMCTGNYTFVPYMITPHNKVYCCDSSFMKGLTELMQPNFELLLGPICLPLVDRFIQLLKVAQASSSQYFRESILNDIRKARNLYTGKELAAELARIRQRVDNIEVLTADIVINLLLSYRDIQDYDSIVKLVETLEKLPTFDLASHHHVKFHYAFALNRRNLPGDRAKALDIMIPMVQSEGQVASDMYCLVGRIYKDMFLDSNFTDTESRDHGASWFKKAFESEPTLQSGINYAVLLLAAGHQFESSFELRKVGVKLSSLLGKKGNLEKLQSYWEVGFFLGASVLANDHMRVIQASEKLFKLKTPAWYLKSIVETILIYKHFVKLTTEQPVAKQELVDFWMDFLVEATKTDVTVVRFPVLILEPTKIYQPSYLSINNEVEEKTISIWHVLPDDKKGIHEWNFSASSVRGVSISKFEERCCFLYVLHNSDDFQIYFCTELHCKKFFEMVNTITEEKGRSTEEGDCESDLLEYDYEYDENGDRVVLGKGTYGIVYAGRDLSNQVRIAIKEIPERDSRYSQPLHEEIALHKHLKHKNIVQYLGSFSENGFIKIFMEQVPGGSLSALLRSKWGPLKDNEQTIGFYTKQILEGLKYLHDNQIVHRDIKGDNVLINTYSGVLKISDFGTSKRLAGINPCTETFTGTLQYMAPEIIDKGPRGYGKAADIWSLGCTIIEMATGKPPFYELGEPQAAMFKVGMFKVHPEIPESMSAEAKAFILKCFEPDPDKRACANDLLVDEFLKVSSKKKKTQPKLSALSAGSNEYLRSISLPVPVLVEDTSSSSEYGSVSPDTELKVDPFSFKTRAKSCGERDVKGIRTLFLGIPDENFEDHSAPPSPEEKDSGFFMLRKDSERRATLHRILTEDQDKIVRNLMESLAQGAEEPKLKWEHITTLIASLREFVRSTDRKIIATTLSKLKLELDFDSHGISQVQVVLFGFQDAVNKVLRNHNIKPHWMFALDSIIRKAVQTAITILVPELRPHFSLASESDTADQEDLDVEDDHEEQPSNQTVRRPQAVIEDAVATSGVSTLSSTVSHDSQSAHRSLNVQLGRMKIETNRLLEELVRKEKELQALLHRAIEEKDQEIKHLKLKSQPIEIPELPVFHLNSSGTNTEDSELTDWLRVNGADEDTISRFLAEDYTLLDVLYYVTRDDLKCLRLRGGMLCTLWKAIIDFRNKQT
Description: as §1, §2

[7] = molecular target: T7, 380 human recombinant protein kinases (Homo sapiens, UniProt Q99755); conditions: PIP5K1α(h), read-out: Inhibition rate (%)
T7 construct: purchased Eurofins (Celle Lévescault)
Description: as §1, §2

[8] = molecular target: T8, 380 human recombinant protein kinases (Homo sapiens, UniProt Q9Y5S2); conditions: MRCKβ(h), read-out: Inhibition rate
T8 construct: purchased Eurofins (Celle Lévescault)
Description: as §1, §2

T2 sequence (Q13153 whole entry): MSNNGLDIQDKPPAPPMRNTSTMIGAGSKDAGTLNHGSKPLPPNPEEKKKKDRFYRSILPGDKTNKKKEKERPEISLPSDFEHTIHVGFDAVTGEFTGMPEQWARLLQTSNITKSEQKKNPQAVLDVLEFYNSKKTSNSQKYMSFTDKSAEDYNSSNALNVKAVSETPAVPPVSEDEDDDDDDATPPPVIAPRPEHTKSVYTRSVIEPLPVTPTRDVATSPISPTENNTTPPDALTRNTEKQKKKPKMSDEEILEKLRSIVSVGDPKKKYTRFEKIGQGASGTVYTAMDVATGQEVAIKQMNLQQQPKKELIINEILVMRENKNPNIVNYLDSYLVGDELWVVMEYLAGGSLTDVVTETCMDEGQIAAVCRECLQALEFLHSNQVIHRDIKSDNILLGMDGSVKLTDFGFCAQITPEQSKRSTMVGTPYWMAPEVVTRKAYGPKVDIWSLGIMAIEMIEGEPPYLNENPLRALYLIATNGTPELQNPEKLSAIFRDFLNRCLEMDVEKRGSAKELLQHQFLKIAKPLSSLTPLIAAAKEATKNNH
T8 sequence (Q9Y5S2 whole entry): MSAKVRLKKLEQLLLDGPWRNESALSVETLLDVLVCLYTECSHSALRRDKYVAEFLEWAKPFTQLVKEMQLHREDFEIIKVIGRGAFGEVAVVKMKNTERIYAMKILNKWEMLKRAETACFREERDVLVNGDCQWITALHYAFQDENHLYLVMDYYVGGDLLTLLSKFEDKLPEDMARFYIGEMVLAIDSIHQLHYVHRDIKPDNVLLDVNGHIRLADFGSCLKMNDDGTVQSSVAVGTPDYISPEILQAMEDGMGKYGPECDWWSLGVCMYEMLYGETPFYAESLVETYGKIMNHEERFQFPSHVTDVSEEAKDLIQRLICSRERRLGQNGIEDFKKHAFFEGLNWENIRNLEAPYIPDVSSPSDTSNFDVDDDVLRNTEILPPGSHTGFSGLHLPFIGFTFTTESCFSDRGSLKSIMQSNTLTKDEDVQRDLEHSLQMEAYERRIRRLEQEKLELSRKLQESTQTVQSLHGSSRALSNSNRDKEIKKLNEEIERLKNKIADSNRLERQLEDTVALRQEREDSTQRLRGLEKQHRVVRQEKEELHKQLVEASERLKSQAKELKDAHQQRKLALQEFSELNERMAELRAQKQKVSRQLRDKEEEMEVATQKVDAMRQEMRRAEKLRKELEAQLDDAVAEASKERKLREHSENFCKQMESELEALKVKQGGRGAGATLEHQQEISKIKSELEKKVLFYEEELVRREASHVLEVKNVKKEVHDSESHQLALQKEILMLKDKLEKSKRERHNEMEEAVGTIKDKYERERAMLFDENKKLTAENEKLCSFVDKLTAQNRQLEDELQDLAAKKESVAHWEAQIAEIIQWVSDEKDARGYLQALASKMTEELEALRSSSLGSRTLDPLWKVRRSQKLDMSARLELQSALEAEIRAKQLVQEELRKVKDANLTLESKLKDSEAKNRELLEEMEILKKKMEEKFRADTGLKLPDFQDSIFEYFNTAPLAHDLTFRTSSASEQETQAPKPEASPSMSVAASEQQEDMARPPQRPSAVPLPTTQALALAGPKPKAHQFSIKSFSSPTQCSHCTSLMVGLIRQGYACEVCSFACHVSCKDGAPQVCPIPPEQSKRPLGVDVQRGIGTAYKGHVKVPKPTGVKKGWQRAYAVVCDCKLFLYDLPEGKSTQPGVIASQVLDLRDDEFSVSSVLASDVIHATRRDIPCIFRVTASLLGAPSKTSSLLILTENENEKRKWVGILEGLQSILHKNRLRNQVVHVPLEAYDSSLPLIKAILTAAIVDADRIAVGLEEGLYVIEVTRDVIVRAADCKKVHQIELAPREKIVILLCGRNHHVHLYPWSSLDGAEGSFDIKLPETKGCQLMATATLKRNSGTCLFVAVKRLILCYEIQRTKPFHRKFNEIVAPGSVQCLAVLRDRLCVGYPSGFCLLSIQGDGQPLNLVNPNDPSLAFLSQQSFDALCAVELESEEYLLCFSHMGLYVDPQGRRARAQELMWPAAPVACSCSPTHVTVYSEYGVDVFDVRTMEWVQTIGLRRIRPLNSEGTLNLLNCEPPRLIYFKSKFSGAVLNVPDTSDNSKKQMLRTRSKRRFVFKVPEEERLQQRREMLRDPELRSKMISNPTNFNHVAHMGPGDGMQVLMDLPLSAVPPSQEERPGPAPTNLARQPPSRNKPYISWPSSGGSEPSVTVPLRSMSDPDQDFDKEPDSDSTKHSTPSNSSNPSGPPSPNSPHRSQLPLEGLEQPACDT
T5 sequence (Q8IZX4 whole entry): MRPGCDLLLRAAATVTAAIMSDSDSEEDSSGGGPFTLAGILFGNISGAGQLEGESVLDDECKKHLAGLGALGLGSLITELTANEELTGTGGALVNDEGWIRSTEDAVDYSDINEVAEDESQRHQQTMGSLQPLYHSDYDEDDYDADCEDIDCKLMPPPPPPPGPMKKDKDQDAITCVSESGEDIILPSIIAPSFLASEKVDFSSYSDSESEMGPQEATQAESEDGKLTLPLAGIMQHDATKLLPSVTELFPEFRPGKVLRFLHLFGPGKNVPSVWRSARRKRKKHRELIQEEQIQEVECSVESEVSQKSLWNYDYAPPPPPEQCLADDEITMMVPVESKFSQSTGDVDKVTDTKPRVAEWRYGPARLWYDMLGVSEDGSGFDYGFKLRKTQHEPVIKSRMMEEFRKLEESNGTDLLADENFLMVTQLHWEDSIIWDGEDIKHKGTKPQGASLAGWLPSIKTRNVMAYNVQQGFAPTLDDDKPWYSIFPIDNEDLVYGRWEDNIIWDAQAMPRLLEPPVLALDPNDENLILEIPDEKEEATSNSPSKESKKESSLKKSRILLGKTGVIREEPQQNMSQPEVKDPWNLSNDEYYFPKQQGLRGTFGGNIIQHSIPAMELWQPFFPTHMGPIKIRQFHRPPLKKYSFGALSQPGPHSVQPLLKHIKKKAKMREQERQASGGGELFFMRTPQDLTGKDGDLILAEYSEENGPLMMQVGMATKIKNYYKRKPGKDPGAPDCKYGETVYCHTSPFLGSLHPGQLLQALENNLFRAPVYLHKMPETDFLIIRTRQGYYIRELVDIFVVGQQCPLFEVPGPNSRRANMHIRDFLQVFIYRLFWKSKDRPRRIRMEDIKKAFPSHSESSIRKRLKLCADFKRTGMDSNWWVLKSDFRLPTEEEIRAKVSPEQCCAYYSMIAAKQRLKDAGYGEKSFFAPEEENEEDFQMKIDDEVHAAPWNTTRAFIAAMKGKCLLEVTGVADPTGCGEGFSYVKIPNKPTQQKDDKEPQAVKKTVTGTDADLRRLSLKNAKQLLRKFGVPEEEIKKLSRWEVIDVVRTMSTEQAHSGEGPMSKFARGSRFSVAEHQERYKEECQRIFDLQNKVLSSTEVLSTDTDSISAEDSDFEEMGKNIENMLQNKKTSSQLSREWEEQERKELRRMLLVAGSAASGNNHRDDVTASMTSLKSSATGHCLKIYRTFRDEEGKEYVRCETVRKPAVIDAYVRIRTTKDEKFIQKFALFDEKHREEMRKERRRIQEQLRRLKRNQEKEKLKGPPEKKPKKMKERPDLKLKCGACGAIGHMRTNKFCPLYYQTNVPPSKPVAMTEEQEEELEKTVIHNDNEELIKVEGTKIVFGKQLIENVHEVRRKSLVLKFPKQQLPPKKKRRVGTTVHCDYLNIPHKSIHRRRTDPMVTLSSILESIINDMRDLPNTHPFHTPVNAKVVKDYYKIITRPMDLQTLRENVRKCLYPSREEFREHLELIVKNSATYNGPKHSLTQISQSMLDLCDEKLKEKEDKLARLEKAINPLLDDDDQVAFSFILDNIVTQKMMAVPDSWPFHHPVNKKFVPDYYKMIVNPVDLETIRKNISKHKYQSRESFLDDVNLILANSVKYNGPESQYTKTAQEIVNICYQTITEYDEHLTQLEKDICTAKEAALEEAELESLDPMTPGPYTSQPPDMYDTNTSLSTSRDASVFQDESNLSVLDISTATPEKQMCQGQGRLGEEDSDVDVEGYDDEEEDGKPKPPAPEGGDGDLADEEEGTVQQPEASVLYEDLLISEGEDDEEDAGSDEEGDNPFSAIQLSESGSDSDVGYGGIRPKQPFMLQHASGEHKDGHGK
T7 sequence (Q99755 whole entry): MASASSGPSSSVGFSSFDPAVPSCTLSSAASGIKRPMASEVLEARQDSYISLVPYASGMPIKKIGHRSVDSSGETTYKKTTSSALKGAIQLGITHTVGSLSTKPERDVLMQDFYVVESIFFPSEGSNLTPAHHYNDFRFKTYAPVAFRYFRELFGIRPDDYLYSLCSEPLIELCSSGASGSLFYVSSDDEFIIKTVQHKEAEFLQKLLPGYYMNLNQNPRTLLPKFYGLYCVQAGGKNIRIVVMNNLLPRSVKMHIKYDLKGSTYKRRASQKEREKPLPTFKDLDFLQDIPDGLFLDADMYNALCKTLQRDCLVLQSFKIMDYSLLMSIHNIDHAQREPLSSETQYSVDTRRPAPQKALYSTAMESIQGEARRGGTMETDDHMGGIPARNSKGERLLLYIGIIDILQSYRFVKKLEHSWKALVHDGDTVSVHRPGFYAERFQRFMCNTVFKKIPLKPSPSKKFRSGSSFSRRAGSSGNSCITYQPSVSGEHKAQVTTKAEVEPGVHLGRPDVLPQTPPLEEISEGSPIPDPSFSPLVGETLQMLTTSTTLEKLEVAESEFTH
T1 sequence (Q07002 whole entry): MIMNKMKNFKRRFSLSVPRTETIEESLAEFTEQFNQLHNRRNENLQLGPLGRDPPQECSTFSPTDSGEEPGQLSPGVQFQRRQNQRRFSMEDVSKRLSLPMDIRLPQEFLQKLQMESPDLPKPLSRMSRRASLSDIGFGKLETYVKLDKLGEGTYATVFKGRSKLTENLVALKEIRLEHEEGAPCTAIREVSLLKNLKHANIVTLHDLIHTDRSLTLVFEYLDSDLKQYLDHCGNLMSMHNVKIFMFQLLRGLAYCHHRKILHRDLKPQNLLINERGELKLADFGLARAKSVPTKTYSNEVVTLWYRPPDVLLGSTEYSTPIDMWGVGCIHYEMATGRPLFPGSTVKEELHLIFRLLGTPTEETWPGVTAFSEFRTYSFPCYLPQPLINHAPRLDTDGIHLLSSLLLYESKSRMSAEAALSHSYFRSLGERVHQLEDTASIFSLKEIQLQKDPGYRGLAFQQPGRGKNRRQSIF

SMILES: C=CC(=O)Nc1cc(-c2cc(-c3cc4c([nH]3)CCNC4=O)ccn2)ccc1OC(F)(F)F [compound 11]
- inhibition at 0.01 µM ([1]; 10 nM): -5%
- inhibition at 0.1 µM ([1]; 100 nM): 2%
- inhibition at 1 µM ([1]; 1000 nM): -3%
- inhibition at 0.01 µM ([2]; 10 nM): -10%
- inhibition at 0.1 µM ([2]; 100 nM): -7%
- inhibition at 1 µM ([2]; 1000 nM): -5%
- inhibition at 0.01 µM ([3]; 10 nM): -8%
- inhibition at 0.1 µM ([3]; 100 nM): 6%
- inhibition at 1 µM ([3]; 1000 nM): 0%
- inhibition at 0.01 µM ([4]; 10 nM): 3%
- inhibition at 0.1 µM ([4]; 100 nM): -3%
- inhibition at 1 µM ([4]; 1000 nM): -11%
- inhibition at 0.01 µM ([5]; 10 nM): 51%
- inhibition at 0.1 µM ([5]; 100 nM): 74%
- inhibition at 1 µM ([5]; 1000 nM): 80%
- inhibition at 0.01 µM ([6]; 10 nM): 14%
- inhibition at 0.1 µM ([6]; 100 nM): 33%
- inhibition at 1 µM ([6]; 1000 nM): 83%
- inhibition at 0.01 µM ([7]; 10 nM): -4%
- inhibition at 0.1 µM ([7]; 100 nM): -3%
- inhibition at 1 µM ([7]; 1000 nM): -2%
- inhibition at 0.01 µM ([8]; 10 nM): 8%
- inhibition at 0.1 µM ([8]; 100 nM): 0%
- inhibition at 1 µM ([8]; 1000 nM): 10%
